Results reported in article PMC12289626, “Aloin protects against UVB-induced apoptosis by modulating integrated signaling pathways” (Frontiers in Pharmacology, 2025).

Key:
[1] = target: T1, p38α (Homo sapiens, UniProt Q16539); assay: ADP-Glo kinase assay with Promega p38α Kinase Enzyme System; type: biochemical
T1 construct: gene MAPK14

[2] = target: T2, JNK1 (Homo sapiens, UniProt P45983); assay: ADP-Glo kinase assay with Promega JNK1 Kinase Enzyme System; type: biochemical
T2 construct: gene MAPK8
T2 sequence (P45983 whole entry): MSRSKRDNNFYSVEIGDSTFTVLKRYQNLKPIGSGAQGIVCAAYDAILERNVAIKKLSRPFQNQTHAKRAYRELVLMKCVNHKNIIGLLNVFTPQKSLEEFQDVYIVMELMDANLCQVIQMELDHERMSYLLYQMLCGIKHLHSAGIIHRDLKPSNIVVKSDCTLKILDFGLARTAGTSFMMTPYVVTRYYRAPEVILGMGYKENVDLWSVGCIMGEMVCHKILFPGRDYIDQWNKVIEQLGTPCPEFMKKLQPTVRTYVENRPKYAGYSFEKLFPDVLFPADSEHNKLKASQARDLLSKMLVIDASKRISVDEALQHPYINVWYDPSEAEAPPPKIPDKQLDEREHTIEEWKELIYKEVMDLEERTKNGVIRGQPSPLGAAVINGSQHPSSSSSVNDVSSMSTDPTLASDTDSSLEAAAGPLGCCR

T1 sequence (Q16539 2-360): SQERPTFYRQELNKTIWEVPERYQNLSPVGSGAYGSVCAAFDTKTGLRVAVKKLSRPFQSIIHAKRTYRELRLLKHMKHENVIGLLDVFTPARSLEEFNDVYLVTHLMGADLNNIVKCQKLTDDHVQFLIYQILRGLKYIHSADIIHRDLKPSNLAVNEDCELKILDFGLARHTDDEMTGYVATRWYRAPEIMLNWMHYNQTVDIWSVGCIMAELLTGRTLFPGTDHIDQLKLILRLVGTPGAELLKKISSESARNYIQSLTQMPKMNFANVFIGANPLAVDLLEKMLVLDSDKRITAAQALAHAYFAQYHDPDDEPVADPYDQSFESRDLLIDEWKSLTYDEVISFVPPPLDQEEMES

O=C1c2c(O)cccc2C([C@@H]2O[C@H](CO)[C@@H](O)[C@H](O)[C@H]2O)c2cc(CO)cc(O)c21 (some centres unmarked) [aloin]
IC50 [1]: 223 µM
IC50 [2]: 3.92 mM
